Results from patent US9018208B2, “Heterocycles as potassium channel modulators” (Icagen Inc., priority 2007, dated 2015).

The molecules below were run on SH-SY5Y M-currents (KCNQ2, KCNQ3 and KCNQ5) (assay: SH-SY5Y native cell line FLIPR assay (voltage-sensitive dye DiBAC)). Conditions: FLIPR assay, SH-SY5Y native cell line; Table 2; read-out: SH-SY5Y EC50.
Assay type: cell-based, mouse neuroblastoma, rat glioma hybrid cell line
Procedure, shortened: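 Response is peak DiBAC fluorescence change, normalised to the maximum from a positive control agent, sampled every 30 s over 25 min. Before compound addition, SH-SY5Y cells differentiated with PGE1 plus isomethylbutylxanthine were dye-loaded for 1 h in EBSS with […] DiBAC.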
An EC50 of under 500 nM was found for `O=C(Cc1cccc(Cl)c1)Nc1nc2ccc(F)cn2c1-c1cccc(Cl)c1` [Compound 300, 2-(3-chlorophenyl)-N-(3-(3-chlorophenyl)-6-fluoroimidazo[1,2-a]pyridin-2-yl)acetamide] in this work. An EC50 of under 500 nM was found for `O=C(Cc1ccc(Cl)cc1)Nc1nc2ccc(F)cn2c1-c1cccc(Cl)c1` [Compound 301, 2-(4-chlorophenyl)-N-(3-(3-chlorophenyl)-6-fluoroimidazo[1,2-a]pyridin-2-yl)acetamide] in this work. An EC50 of under 500 nM was found for `O=C(CC1CCCC1)Nc1nc2ccc(F)cn2c1-c1cccc(Cl)c1` [Compound 302, N-(3-(3-chlorophenyl)-6-fluoroimidazo[1,2-a]pyridin-2-yl)-2-cyclopentylacetamide] in this work. An EC50 of 500 to 3000 nM was found for `O=C(CCC(F)(F)F)Nc1nc2ccc(F)cn2c1-c1ccc(OC(F)(F)F)c(F)c1` [Compound 303, 4,4,4-trifluoro-N-(6-fluoro-3-(3-fluoro-4-(trifluoromethoxy)phenyl)imidazo[1,2-a]pyridin-2-yl)butanamide] in this work. An EC50 of under 500 nM was found for `CC1(CC(=O)Nc2nc3ccc(F)cn3c2-c2ccc(OC(F)(F)F)c(F)c2)CCCC1` [Compound 304, N-(6-fluoro-3-(3-fluoro-4-(trifluoromethoxy)phenyl)imidazo[1,2-a]pyridin-2-yl)-2-(1-methylcyclopentyl)acetamide] in this work. An EC50 of under 500 nM was found for `Cc1ccc2nc(NC(=O)CC(C)(C)C)c(-c3cccc(OC(F)(F)F)c3)n2n1` [Compound 305, 3,3-dimethyl-N-(6-methyl-3-(3-(trifluoromethoxy)phenyl)imidazo[1,2-b]pyridazin-2-yl)butanamide] in this work. An EC50 of under 500 nM was found for `Cc1ccc2nc(NC(=O)Cc3ccc(F)cc3)c(-c3cccc(OC(F)(F)F)c3)n2n1` [Compound 306, 2-(4-fluorophenyl)-N-(6-methyl-3-(3-(trifluoromethoxy)phenyl)imidazo[1,2-b]pyridazin-2-yl)acetamide] in this work. An EC50 of 3000 to 10000 nM was found for `COc1ccn2c(-c3ccc(C(F)(F)F)cc3)c(NC(=O)CC(F)(F)F)nc2c1` [Compound 307, 3,3,3-trifluoro-N-(7-methoxy-3-(4-(trifluoromethyl)phenyl)imidazo[1,2-a]pyridin-2-yl)propanamide] in this work. An EC50 of under 500 nM was found for `Cc1ccc2nc(NC(=O)Cc3ccc(F)cc3)c(-c3cccc(C(F)(F)F)c3)n2n1` [Compound 309, 2-(4-fluorophenyl)-N-(6-methyl-3-(3-(trifluoromethyl)phenyl)imidazo[1,2-b]pyridazin-2-yl)acetamide] in this work. An EC50 of under 500 nM was found for `O=C(Cc1ccc(Cl)cc1)Nc1nc2ccc(F)cn2c1-c1ccc(OC(F)(F)F)c(F)c1` [Compound 310, 2-(4-chlorophenyl)-N-(6-fluoro-3-(3-fluoro-4-(trifluoromethoxy)phenyl)imidazo[1,2-a]pyridin-2-yl)acetamide] in this work. An EC50 of under 500 nM was found for `O=C(CC1CCCC1)Nc1nc2ccc(F)cn2c1-c1ccc(OC(F)(F)F)c(F)c1` [Compound 311, 2-cyclopentyl-N-(6-fluoro-3-(3-fluoro-4-(trifluoromethoxy)phenyl)imidazo[1,2-a]pyridin-2-yl)acetamide] in this work. An EC50 of under 500 nM was found for `CC(C)C(C)C(=O)Nc1nc2ccc(F)cn2c1-c1ccc(OC(F)(F)F)c(F)c1` (stereo not drawn) [Compound 312, N-(6-fluoro-3-(3-fluoro-4-(trifluoromethoxy)phenyl)imidazo[1,2-a]pyridin-2-yl)-2,3-dimethylbutanamide] in this work. An EC50 of under 500 nM was found for `CC(CC(=O)Nc1nc2ccc(F)cn2c1-c1ccc(OC(F)(F)F)c(F)c1)C(F)(F)F` (stereo not drawn) [Compound 313, 4,4,4-trifluoro-N-(6-fluoro-3-(3-fluoro-4-(trifluoromethoxy)phenyl)imidazo[1,2-a]pyridin-2-yl)-3-methyl butanamide] in this work. An EC50 of under 500 nM was found for `CC(C)C(C)C(=O)Nc1nc2ccc(F)cn2c1-c1cccc(Cl)c1` (stereo not drawn) [Compound 314, N-(3-(3-chlorophenyl)-6-fluoroimidazo[1,2-a]pyridin-2-yl)-2,3-dimethylbutanamide] in this work. An EC50 of 500 to 3000 nM was found for `CC(CC(=O)Nc1nc2ccc(F)cn2c1-c1cccc(Cl)c1)C(F)(F)F` (stereo not drawn) [Compound 315, N-(3-(3-chlorophenyl)-6-fluoroimidazo[1,2-a]pyridin-2-yl)-4,4,4-trifluoro-3-methylbutanamide] in this work.
